# Like-named read-outs stand apart in the source and are kept apart here.
# Legend:
# [1] = system: phosphorylation of Histone H3; experiment: HeLa cell 1-hour phospho-histone assay; assay type: cell-based; conditions: Homo sapiens, HeLa, 1 h, HeLa cells, 1 hour incubation, % of cells pHH3 positive; read-out: inhibitory activity (EC50) in the phospho-histone H3 assay
# Procedure: HeLa cell 1-hour phospho-histone assay
# The purpose of this assay is to test the inhibitory effect of Aurora compounds with respect to phosphorylation of Histone H3 in the cellular context. HeLa cells (9x10^4/well) are plated in black 96-well flat-bottom tissue culture plates and incubated for 40 hours prior to compound addition. Compounds are serially diluted in DMSO, followed by dilution into MEM containing […] HEPES; 10ul/well of diluted compounds are added to cells (0.5% DMSO final). Cells are incubated for 1 hour at 37 °C in 5% CO2. Cells are then fixed with 3.7% formaldehyde for 10 minutes, washed with wash buffer (1% goat serum and 0.1% Tween 20 in PBS), then permeabilized with 0.5% Triton X in PBS for 15 minutes. After washing with wash buffer, cells are incubated with primary antibody (Upstate #06-507 anti-phospho-histone (Ser 10) antibody (pHH3) for 1 hour at 10ug/ml. After 2 washes with wash buffer, cells are incubated with secondary antibody (Molecular Probes #A11034 goat anti-rabbit Alexa-488 for 1 hour at 1ug/ml + Hoechst 33342 nuclear dye at 1ug/ml (Molecular Probes). Cells are washed 2 times with wash buffer, and buffer replaced with PBS. Plates are scanned on the Cellomics Array Scan (6 fields, ~2000 cells/well) and % of cells that are pHH3 positive were calculated using the Cellomics algorithm.
# [2] = molecular target: T1, AuroraA-TPX2 (Homo sapiens, UniProt O14965); experiment: AuroraA-TPX2 Homogeneous Time Resolved Fluorescent (HTRF) kinase assay; assay type: biochemical; conditions: average, read-out: AurA/TP X2_ IC50_IP (Avg)
# T1 construct: 20 µL of AuroraA-TPX2 KD GST; GST
# T1 sequence (O14965 133-383 limits assumed): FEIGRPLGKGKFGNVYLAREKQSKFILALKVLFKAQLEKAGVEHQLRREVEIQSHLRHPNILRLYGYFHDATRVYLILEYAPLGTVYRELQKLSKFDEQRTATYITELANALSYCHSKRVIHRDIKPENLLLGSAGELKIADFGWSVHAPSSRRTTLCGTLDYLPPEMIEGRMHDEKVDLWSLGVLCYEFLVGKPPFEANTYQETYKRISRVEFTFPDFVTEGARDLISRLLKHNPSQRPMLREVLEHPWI
# T1 sequence (Q9ULW0 1-43 partner limits assumed): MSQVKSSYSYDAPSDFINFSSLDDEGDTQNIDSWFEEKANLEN
# In short: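 Aurora-A/TPX2 phosphorylates biotinylated PLK peptide (about 1 µM) with ATP for about 120 min in 60 mM HEPES pH 7.5, 10 mM MgCl2, 2 mM DTT. EDTA quench, overnight equilibration with Eu-anti-phosphoPLK antibody and SA-APC; HTRF read at 615/655 nm after 320 nm excitation.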
# [3] = molecular target: T2, AuroraB (Homo sapiens, UniProt Q96GD4); experiment: AuroraB Homogeneous Time Resolved Fluorescent (HTRF) kinase assay; assay type: biochemical; conditions: average, read-out: AurB_ _IC50_IP (Avg)
# T2 construct: 20 µL of AuroraB FL His; His
# T2 sequence (Q96GD4 whole entry): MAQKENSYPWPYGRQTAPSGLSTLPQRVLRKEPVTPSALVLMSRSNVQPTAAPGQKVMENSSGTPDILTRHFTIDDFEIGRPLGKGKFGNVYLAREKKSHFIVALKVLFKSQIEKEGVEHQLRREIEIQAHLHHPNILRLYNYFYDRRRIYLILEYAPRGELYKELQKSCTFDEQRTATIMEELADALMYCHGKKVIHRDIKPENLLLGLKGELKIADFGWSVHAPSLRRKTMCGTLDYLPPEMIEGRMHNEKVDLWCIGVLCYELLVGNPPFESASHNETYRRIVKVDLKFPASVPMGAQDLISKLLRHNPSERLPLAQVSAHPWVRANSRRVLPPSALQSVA
# In short: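 Full-length His-tagged AuroraB (400 pM) phosphorylates 0.1 µM biotinylated Histone H3 with 23 µM ATP (Km(app)) in HEPES pH 7.5 with Mg/Mn, about 90 min. EDTA-quenched; Eu-anti-phosphoHistoneH3 and SA-APC HTRF, 655/615 nm ratio as phosphorylation.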
# [4] = given as numbers, unit inferred
Compound,EC50 [1] [nM],IC50 ([2]; given as class symbols) [nM],IC50 ([3]; given as class symbols) [nM],"IC50 [2, 4] [nM]","IC50 [3, 4] [nM]"
"Nc1nccc(-c2cccnc2Oc2ccc(Nc3nnc(-c4ccsc4)c4ccccc34)cc2)n1 [Example 90, N-(4-((3-(2-amino-4-pyrimidinyl)-2-pyridinyl)oxy)phenyl)-4-(3-thienyl)-1-phthalazinamine]",< 1000,,,,
"CNc1nccc(-c2cccnc2Oc2ccc(Nc3nnc(-c4ccsc4)c4ccccc34)cn2)n1 [Example 92, N-(6-((3-(2-(methylamino)-4-pyrimidinyl)-2-pyridinyl)oxy)-3-pyridinyl)-4-(3-thienyl)-1-phthalazinamine]",< 1000,,,,
"CNc1nccc(-c2cccnc2Oc2ccc(Nc3nnc(-c4ccccc4)c4c3CCCC4)cn2)n1 [Example 105, N-(6-((3-(2-(methylamino)-4-pyrimidinyl)-2-pyridinyl)oxy)-3-pyridinyl)-4-phenyl-5,6,7,8-tetrahydro-1-phthalazinamine]",< 1000,,,,
"Cc1ccnc(-c2nnc(Nc3ccc(Oc4ncccc4-c4ccnc(NCCCN5CCN(C)CC5)n4)cc3)c3ccccc23)c1 [compound 409, N-(4-((3-(2-((3-(4-methyl-1-piperazinyl)propyl)amino)-4-pyrimidinyl)-2-pyridinyl)oxy)phenyl)-4-(4-methyl-2-pyridinyl)-1-phthalazinamine]",,100 to 500,≤ 100,,
"Cc1ccnc(-c2nnc(Nc3ccc(Oc4ncccc4-c4ccnc(NCCCN5CCOCC5)n4)cc3)c3ccccc23)c1 [compound 412, 4-(4-methyl-2-pyridinyl)-N-(4-((3-(2-((3-(4-morpholinyl)propyl)amino)-4-pyrimidinyl)-2-pyridinyl)oxy)phenyl)-1-phthalazinamine]",,100 to 500,≤ 100,,
"CCc1cc(-c2ccccc2)nnc1Nc1ccc(Oc2ncccc2-c2ccnc(NCCCN3CCCCC3)n2)nc1 [compound 450, 4-ethyl-6-phenyl-N-(6-((3-(2-((3-(1-piperidinyl)propyl)amino)-4-pyrimidinyl)-2-pyridinyl)oxy)-3-pyridinyl)-3-pyridazinamine]",,500 to 2500,≤ 100,,
"CCc1cc(-c2ccccc2)nnc1Nc1ccc(Oc2ncccc2-c2ccnc(NCCCN3CCNCC3)n2)nc1 [compound 451, 4-ethyl-6-phenyl-N-(6-((3-(2-((3-(1-piperazinyl)propyl)amino)-4-pyrimidinyl)-2-pyridinyl)oxy)-3-pyridinyl)-3-pyridazinamine]",,100 to 500,≤ 100,,
"COc1cccc(-c2nnc(Nc3ccc(Oc4ncccc4-c4ccnc(NCCCN5CCCC5)n4)cc3)c3ccccc23)n1 [compound 455, 4-(6-(methyloxy)-2-pyridinyl)-N-(4-((3-(2-((3-(1-pyrrolidinyl)propyl)amino)-4-pyrimidinyl)-2-pyridinyl)oxy)phenyl)-1-phthalazinamine]",,≤ 100,≤ 100,,
"CCc1cc(-c2ccccc2)nnc1Nc1ccc(Oc2ncccc2-c2ccnc(NCCCN3CCN(C)CC3)n2)cc1 [compound 456, 4-ethyl-N-(4-((3-(2-((3-(4-methyl-1-piperazinyl)propyl)amino)-4-pyrimidinyl)-2-pyridinyl)oxy)phenyl)-6-phenyl-3-pyridazinamine]",,≤ 100,≤ 100,,
"CCc1cc(-c2ccccc2)nnc1Nc1ccc(Oc2ncccc2-c2ccnc(NCCCN3CCNCC3)n2)cc1 [compound 457, 4-ethyl-6-phenyl-N-(4-((3-(2-((3-(1-piperazinyl)propyl)amino)-4-pyrimidinyl)-2-pyridinyl)oxy)phenyl)-3-pyridazinamine]",,≤ 100,≤ 100,,
"CCc1cc(-c2ccccc2)nnc1Nc1ccc(Oc2ncccc2-c2ccnc(NCCCN3CCCCC3)n2)cc1 [compound 458, 4-ethyl-6-phenyl-N-(4-((3-(2-((3-(1-piperidinyl)propyl)amino)-4-pyrimidinyl)-2-pyridinyl)oxy)phenyl)-3-pyridazinamine]",,≤ 100,≤ 100,,
"CCc1cc(-c2ccccc2)nnc1Nc1ccc(Oc2ncccc2-c2ccnc(NCCCN3CCCC3)n2)cc1 [compound 459, 4-ethyl-6-phenyl-N-(4-((3-(2-((3-(1-pyrrolidinyl)propyl)amino)-4-pyrimidinyl)-2-pyridinyl)oxy)phenyl)-3-pyridazinamine]",,100 to 500,≤ 100,,
"COc1cccc(-c2nnc(Nc3ccc(Oc4ncccc4-c4ccnc(NCCCN5CCNCC5)n4)cc3)c3ccccc23)n1 [compound 460, 4-(6-(methyloxy)-2-pyridinyl)-N-(4-((3-(2-((3-(1-piperazinyl)propyl)amino)-4-pyrimidinyl)-2-pyridinyl)oxy)phenyl)-1-phthalazinamine]",,≤ 100,≤ 100,,
N-(4-((3-(2-amino-4-pyrimidinyl)-2-pyridinyl)oxy)phenyl)-4-(6-methyl-2-pyridinyl)-1-phthalazinamine [compound 271],,,,24.3,1
N-(4-((3-(2-amino-4-pyrimidinyl)-2-pyridinyl)oxy)phenyl)-4-ethyl-6-phenyl-3-pyridazinamine [compound 435],,≤ 100,≤ 100,,

# Next, values leading:
EC50 [1] [nM],IC50 ([2]; given as class symbols) [nM],IC50 ([3]; given as class symbols) [nM],"IC50 [2, 4] [nM]","IC50 [3, 4] [nM]",Compound
,≤ 100,≤ 100,,,"Cc1ccnn1-c1nnc(Nc2ccc(Oc3ncccc3-c3ccnc(N)n3)cc2)c2ccccc12 [compound 407, N-(4-((3-(2-amino-4-pyrimidinyl)-2-pyridinyl)oxy)phenyl)-4-(5-methyl-1H-pyrazol-1-yl)-1-phthalazinamine]"
,≤ 100,≤ 100,,,"Cc1ccn(-c2nnc(Nc3ccc(Oc4ncccc4-c4ccnc(N)n4)cc3)c3ccccc23)n1 [compound 408, N-(4-((3-(2-amino-4-pyrimidinyl)-2-pyridinyl)oxy)phenyl)-4-(3-methyl-1H-pyrazol-1-yl)-1-phthalazinamine]"
,≤ 100,≤ 100,,,"COc1cccc(-c2nnc(Nc3ccc(Oc4ncccc4-c4ccnc(NCCCN5CCN(C)CC5)n4)cc3)c3ccccc23)n1 [compound 410, 4-(6-(methyloxy)-2-pyridinyl)-N-(4-((3-(2-((3-(4-methyl-1-piperazinyl)propyl)amino)-4-pyrimidinyl)-2-pyridinyl)oxy)phenyl)-1-phthalazinamine]"
,≤ 100,≤ 100,,,"C[C@H]1CN(CCCNc2nccc(-c3cccnc3Oc3ccc(Nc4nnc(-c5ccccc5)c5ccccc45)cc3)n2)CCN1 [compound 411, N-(4-((3-(2-((3-((3S)-3-methyl-1-piperazinyl)propyl)amino)-4-pyrimidinyl)-2-pyridinyl)oxy)phenyl)-4-phenyl-1-phthalazinamine]"
,≤ 100,≤ 100,,,"CCc1cc(-c2ccccc2)nnc1Nc1ccc(Oc2ncccc2-c2ccnc(NCCCN3CCN(C)CC3)n2)nc1 [compound 449, 4-ethyl-N-(6-((3-(2-((3-(4-methyl-1-piperazinyl)propyl)amino)-4-pyrimidinyl)-2-pyridinyl)oxy)-3-pyridinyl)-6-phenyl-3-pyridazinamine]"
,≤ 100,≤ 100,,,"FC1CCCN(CCCNc2nccc(-c3cccnc3Oc3ccc(Nc4nnc(-c5ccccc5)c5ccccc45)cc3)n2)C1 (stereo not shown) [compound 452, N-(4-((3-(2-((3-(3-fluoro-1-ptperidinyl)propyl)amino)-4-pyrimidinyl)-2-pyridinyl)oxy)phenyl)-4-phenyl-1-phthalazinamine]"
,≤ 100,≤ 100,,,"FC1(F)CCCN(CCCNc2nccc(-c3cccnc3Oc3ccc(Nc4nnc(-c5ccccc5)c5ccccc45)cc3)n2)C1 [compound 453, N-(4-((3-(2-((3-(3,3-difluoro-1-piperidinyl)propyl)amino)-4-pyrimidinyl)-2-pyridinyl)oxy)phenyl)-4-phenyl-1-phthalazinamine]"
,≤ 100,≤ 100,,,"COc1cccc(-c2nnc(Nc3ccc(Oc4ncccc4-c4ccnc(NCCCN5CCCCC5)n4)cc3)c3ccccc23)n1 [compound 454, 4-(6-(methyloxy)-2-pyridinyl)-N-(4-((3-(2-((3-(1-piperidinyl)propyl)amino)-4-pyrimidinyl)-2-pyridinyl)oxy)phenyl)-1-phthalazinamine]"
